Laboratory results from PubChem BioAssay AID463203 (Broad Institute, 2010).
Calls of active or inactive are those of the source.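 Rule for the calls: active = more than half of replicate measurements showing over 20% loss of kinase signal relative to plate controls; inconclusive = some but at most half of replicates over 20% loss; inactive = no replicate over 20% signal loss.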

Target: Glycogen synthase kinase-3 alpha (Homo sapiens) (UniProt P49840)
Test: concentration-response blocking of human GSK3A – biochemical, luminescence, cell-free homogeneous, retest, dose response (AID 463203)
Conditions: GSK-3 alpha enzyme, ADP-Glo luminescence, 60 min

Chain of Glycogen synthase kinase-3 alpha (Homo sapiens) (P49840 whole entry, looked up): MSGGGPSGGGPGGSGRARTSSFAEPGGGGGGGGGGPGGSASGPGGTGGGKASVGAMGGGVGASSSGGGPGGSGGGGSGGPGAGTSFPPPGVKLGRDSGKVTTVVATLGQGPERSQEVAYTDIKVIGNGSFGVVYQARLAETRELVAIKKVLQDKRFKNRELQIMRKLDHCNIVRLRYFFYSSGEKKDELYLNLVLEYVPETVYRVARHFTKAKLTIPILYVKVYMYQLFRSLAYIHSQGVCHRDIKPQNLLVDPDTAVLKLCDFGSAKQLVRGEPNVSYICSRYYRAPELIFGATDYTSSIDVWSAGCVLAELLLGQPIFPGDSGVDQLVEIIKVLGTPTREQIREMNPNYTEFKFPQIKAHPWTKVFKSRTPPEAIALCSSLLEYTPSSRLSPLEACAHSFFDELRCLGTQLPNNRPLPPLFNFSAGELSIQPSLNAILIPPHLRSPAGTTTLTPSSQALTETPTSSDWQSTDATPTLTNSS

Q: How did the AC50 turn out when `N#Cc1ccccc1Cn1cc(/C=N/Nc2ccc([N+](=O)[O-])cn2)c2ccccc21` was run?
A: > 30 µM (inactive)

Q: How did the AC50 turn out when `Cc1oc2ccc(O)c(CN3CCOCC3)c2c1C(=O)c1ccc(Cl)cc1` was run?
A: > 30 µM (inactive)

Q: Which AC50 does the source give for `Cc1ccc2oc(=O)c3cnn(CC(=O)N4CCN(c5ccccc5)CC4)c3c2c1` here?
A: > 30 µM (inactive)

Q: `CCN(CC)c1nc(N)c([N+](=O)[O-])c(NCCO)n1` was tested. Which AC50 did it give?
A: > 30 µM (inactive)

Q: How did the AC50 turn out when `COc1c(-c2ccc(O)cc2)oc2cc(O)cc(O)c2c1=O` was run?
A: 6.97 µM

Q: For `COc1cc(C(=O)Oc2cc(C)cc(C)c2)cc(OC)c1OC`, which AC50 is on record?
A: > 30 µM (inactive)

Q: `Cc1cnn(-c2cc(N/N=C/c3ccc(F)cc3)ncn2)c1` was tested. Which AC50 did it give?
A: > 30 µM (inactive)

Q: `C/C(=C(/CCO)SSCC1CCCO1)N(C=O)Cc1cnc(C)nc1N` (configuration not stated) was tested. Which AC50 did it give?
A: > 30 µM (inactive)

Q: How did the AC50 turn out when `Cc1sc2ncnc(NCCCN3CCCC3=O)c2c1C` was run?
A: 21.5 µM

Q: For `CCc1cc(C(=O)c2ccc(OC)cc2)c(NC(=O)COCC(=O)O)s1`, which AC50 is on record?
A: > 30 µM (inactive)

Q: How did the AC50 turn out when `CC(=O)Nc1ccc(C(=O)OCC(=O)Nc2c(C)n(C)n(-c3ccccc3)c2=O)cc1` was run?
A: > 30 µM (inactive)

Q: How did the AC50 turn out when `Cc1nc2c(C)cccn2c1/C(O)=C1\C(=O)C(=O)N(CCN2CCOCC2)C1c1cccs1` (configuration not stated) was run?
A: > 30 µM (inactive)

Q: How did the AC50 turn out when `CCN1C(=O)/C(=C/c2cccs2)N(C)C1=S` was run?
A: > 30 µM (inactive)

Q: With `CCC(C)[C@H](NC(=O)NCc1ccccc1Cl)C(=O)OC` (some centres not stated) as the molecule, how does the AC50 read?
A: > 30 µM (inactive)

Q: With `c1nc(NC2CCCCCC2)c2[nH]cnc2n1` as the molecule, how does the AC50 read?
A: 29.8 µM

Q: With `Cn1nnnc1SCC(=O)Nc1nn(-c2ccccc2)nc1C(N)=O` as the molecule, how does the AC50 read?
A: 24.2 µM

Q: Which AC50 does the source give for `Cc1nn(C)c(C)c1CN(C)S(=O)(=O)c1ccc(F)cc1` here?
A: > 30 µM (inactive)

Q: Which AC50 does the source give for `Cc1ccc(-c2noc(CSc3nnnn3-c3ccccc3)n2)cc1` here?
A: > 30 µM (inactive)

Q: `COc1cc(NC(=O)c2cc([N+](=O)[O-])ccc2NC(=O)CNC2CCCCC2)cc(OC)c1` was tested. Which AC50 did it give?
A: > 30 µM (inactive)

Q: For `CCOC(=O)c1nnn(-c2ccc(OC)cc2)c1N`, which AC50 is on record?
A: > 30 µM (inactive)

Q: How did the AC50 turn out when `O=C(C[n+]1ccccc1)c1ccc(Cl)cc1` was run?
A: > 30 µM (inactive)

Q: Which AC50 does the source give for `COc1cc(/C=N/NC(=O)c2cnccn2)ccc1O` here?
A: > 30 µM (inactive)

Q: How did the AC50 turn out when `COc1cccc(Nc2ncnc3nc[nH]c23)c1` was run?
A: 19.7 µM

Q: For `CCOC(=O)c1nnn(-c2nonc2N)c1-c1ccc(Br)cc1`, which AC50 is on record?
A: 12.4 µM

Q: How did the AC50 turn out when `NC(=O)N/N=C/c1c(O)ccc2oc3c(c12)CCCC3` was run?
A: 0.845 µM

Q: For `Cc1ccc(Sc2ccc(NC(=O)CCl)cc2)cc1C`, which AC50 is on record?
A: > 30 µM (inactive)

Q: How did the AC50 turn out when `CS(=O)(=O)N1CCN(c2ccc(NC(=O)c3ccc(Br)o3)cc2)CC1` was run?
A: > 30 µM (inactive)

Q: How did the AC50 turn out when `COc1ccc([N+](=O)[O-])cc1NC(=O)CCN1CCN(CCO)CC1` was run?
A: > 30 µM (inactive)

Q: How did the AC50 turn out when `Cc1cc(C(C#N)c2ccccc2)n2ncnc2n1` (configuration not stated) was run?
A: 3.35 µM

Q: For `CCOC(=O)c1ccc(N2CSC3=C(C#N)C(c4cccs4)CC(=O)N3C2)cc1` (configuration not stated), which AC50 is on record?
A: > 30 µM (inactive)

Q: `COc1cc(OC)cc(C(=O)O/N=C(\N)c2ccccn2)c1` was tested. Which AC50 did it give?
A: > 30 µM (inactive)

Q: `CCOC(=O)c1[nH]c(C)c(C(=O)OCCOc2cccc(C)c2)c1C` was tested. Which AC50 did it give?
A: > 30 µM (inactive)

Q: `Fc1ccccc1CSc1nnc(-c2cccnc2)o1` was tested. Which AC50 did it give?
A: > 30 µM (inactive)

Q: How did the AC50 turn out when `COC1(OC)N=C(N)C2(C#N)C(c3cccc(Oc4ccccc4)c3)C12C#N` (configuration not stated) was run?
A: > 30 µM (inactive)

Q: Which AC50 does the source give for `CCOC(=O)c1cc(CC)sc1NC(=O)CN1CCN(C(=O)c2ccco2)CC1` here?
A: > 30 µM (inactive)

Q: Which AC50 does the source give for `Cc1nnc(SCC(=O)Nc2sc3c(c2C(=O)c2ccccc2)CCCC3)s1` here?
A: > 30 µM (inactive)

Q: Which AC50 does the source give for `COc1ccc(/C=C(/NC(=O)c2ccc([N+](=O)[O-])cc2)C(=O)NC(C)(C)C)cc1` here?
A: > 30 µM (inactive)

Q: For `Cc1cc(OC(=O)c2c(C)cc(OC(=O)c3c(C)cc(O)cc3O)cc2O)cc(O)c1C(=O)O`, which AC50 is on record?
A: > 30 µM (inactive)

Q: Which AC50 does the source give for `CCOC(=O)c1cc[nH]c1C` here?
A: > 30 µM (inactive)

Q: `CCCc1c(C(=O)N/N=C/c2cccnc2)nnn1-c1nonc1N` was tested. Which AC50 did it give?
A: > 30 µM (inactive)

Q: With `CS(=O)(=O)Nc1ccc(-c2ccc(/C=C3\SC(N)=NC3=O)o2)cc1` as the molecule, how does the AC50 read?
A: 1.02 µM

Q: How did the AC50 turn out when `N#CC1=C(S)N(c2ccccc2)C(c2ccco2)NC1=O` (configuration not stated) was run?
A: > 30 µM (inactive)
